# In patent publication US9296745B2, “Diacylglycerol acyltransferase 2 inhibitors” (Pfizer Inc., priority 2012, dated 2016):
# pIC50: −log10 of the molar value.
# Target: Human DGAT2 (hDGAT2) (Homo sapiens (Human), UniProt Q96PD7)
# Experiment: In vitro DGAT2 assay, IC50 determination with hDGAT2 membrane fraction
# Type: biochemical
# Conditions: geometric mean; background for complete inhibition of DGAT2 obtained with 50 μM (1R,2R)-2-({3′-Fluoro-4′-[(6-fluoro-1,3-benzothiazol-2-yl)amino]-1,1′-biphenyl-4-yl}carbonyl)cyclopentanecarboxylic acid; read-out: DGAT2 IC50
# Description: Recombinant baculovirus for the FLAG-tagged hDGAT2 was generated in SF9 insect cells using Bac-to-Bac baculovirus expression system (Invitrogen) according to the manufacturer's protocol. For the expression of hDGAT2, SF9 cells (20 L) grown in Sf900II media were infected with hDGAT2 baculovirus at a multiplicity of infection of 1 in a Wave Bioreactor System 20/50P wave bag (GE Healthcare). After 40 hours of infection, the cells were then harvested by centrifugation at 5,000×g. The cell pellets were washed by resuspending in phosphate buffered saline (PBS) and collected by centrifugation at 5,000×g. The cell paste was flash frozen in liquid N2 and stored at −80° C. until needed. All operations below were at 4° C. unless otherwise noted. The cells were resuspended in lysis buffer (50 mM Tris-HCl, pH 8.0, 250 mM sucrose) including 1 mM ethylenediaminetetraacetic acid (EDTA) and the complete protease inhibitor cocktail (Roche Diagnostics) at a ratio of 3 ml buffer per 1 g cell paste. The cells were lysed by dounce homogenizer. The cell debris was removed by centrifugation at 1,000×g for 20 min, and the supernatant was centrifuged at 100,000×g for 1 hour. The resulting pellet was rinsed three times by filling ultracentrifuge tubes to the top with ice cold PBS before decanting. The washed pellet was resuspended with gentle stirring for 1 hour in lysis buffer containing 8 mM 3-[(3-cholamidopropyl)dimethylammonio]-1-propanesulfonate (CHAPS) at a ratio of 1 mL buffer per 1 g of original cell paste and centrifuged again at 100,000×g for 1 hour. The resulting supernatant (hDGAT2 membrane fraction) was aliquotted, flash frozen in liquid N2, and stored at −80° C. until use.
# To 1 μL of compounds dissolved in 100% DMSO and spotted at the bottom of each well, 5 μL of 0.04% bovine serum albumin (BSA) (fatty acid free, Sigma Aldrich) was added and the mixture was incubated at room temperature for 20 minutes. To this mixture, 10 μL of hDGAT2 membrane fraction (0.01 mg/mL) diluted in 100 mM Hepes-NaOH, pH 7.4, 20 mM MgCl2 containing 200 nM methyl arachidonyl fluorophosphonate (Cayman Chemical; dried from ethyl acetate stock solution under argon gas and dissolved in DMSO as 5 mM stock) was added. […] The reaction mixtures were incubated at room temperature for 40 min and the reactions were stopped by addition of 5 μL of 1% H3PO4. After the addition of 45 μL MicroScint-E (Perkin-Elmer), plates were sealed with Top Seal-A covers (Perkin-Elmer) and phase partitioning of substrates and products was achieved using a HT-91100 microplate orbital shaker (Big Bear Automation, Santa Clara, Calif.). Plates were centrifuged at 2,000×g for 1 min in an Allegra 6R Centrifuge (Beckman Coulter) and then were sealed again with fresh covers before reading in a 1450 Microbeta Wallac Trilux Scintillation Counter (Perkin Elmer). DGAT2 activity was measured by quantifying the generated product [^14C]tridecanoylglycerol in the upper organic phase.
# Inhibitors were tested at eleven different concentrations to generate IC50 values for each compound. […] Results are reported as geometric mean IC50 values.
# Human DGAT2 (hDGAT2), sequence (Q96PD7 whole entry): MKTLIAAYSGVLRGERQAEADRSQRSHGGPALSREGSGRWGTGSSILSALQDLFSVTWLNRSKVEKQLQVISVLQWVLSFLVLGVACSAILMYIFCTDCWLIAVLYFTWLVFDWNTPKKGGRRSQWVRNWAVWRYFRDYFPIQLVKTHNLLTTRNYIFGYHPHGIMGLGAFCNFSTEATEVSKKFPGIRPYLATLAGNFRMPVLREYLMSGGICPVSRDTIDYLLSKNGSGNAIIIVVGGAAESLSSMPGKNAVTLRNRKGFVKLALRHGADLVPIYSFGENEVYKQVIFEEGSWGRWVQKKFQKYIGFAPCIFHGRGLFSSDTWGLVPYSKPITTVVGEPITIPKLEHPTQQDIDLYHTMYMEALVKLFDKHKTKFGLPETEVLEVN
row,pIC50,SMILES
1,6.53,"O=C([C@@H]1CCCN(c2ccc3nc(-c4ccnc(N5CCOCC5)n4)[nH]c3n2)C1)N1CCCC1 [Example 25, (R)-(1-(2-(2-Morpholinopyrimidin-4-yl)-3H-imidazo[4,5-b]pyridin-5-yl)piperidin-3-yl)(pyrrolidin-1-yl)methanone]"
2,5.86,"O=C1COc2ccc(-c3nc4ccc(N5CCC[C@@H](C(=O)N6CCCC6)C5)nc4[nH]3)cc2N1 [Example 27, (R)-6-(5-(3-(Pyrrolidine-1-carbonyl)piperidin-1-yl)-3H-imidazo[4,5-b]pyridin-2-yl)-2H-benzo[b][1,4]oxazin-3(4H)-one]"
3,5.36,"O=C([C@@H]1CCCN(c2ccc3nc(C4CC4)[nH]c3n2)C1)N1CCCC1 [Example 29, (R)-(1-(2-Cyclopropyl-3H-imidazo[4,5-b]pyridin-5-yl)piperidin-3-yl)(pyrrolidin-1-yl)methanone]"
4,5.85,"CS(=O)(=O)Nc1cccc(-c2nc3ccc(N4CCC[C@@H](C(=O)N5CCCC5)C4)nc3[nH]2)c1 [Example 30, (R)-N-(3-(5-(3-(Pyrrolidine-1-carbonyl)piperidin-1-yl)-3H-imidazo[4,5-b]pyridin-2-yl)phenyl)methanesulfonamide]"
5,6.62,"CCc1cc(-c2nc3ccc(N4CCC[C@@H](C(=O)N5CCCC5)C4)nc3[nH]2)no1 [Example 32, (R)-(1-(2-(5-Ethylisoxazol-3-yl)-3H-imidazo[4,5-b]pyridin-5-yl)piperidin-3-yl)(pyrrolidin-1-yl)methanone]"
6,7.01,"Cc1cncc(-c2nc3ccc(N4CCC[C@@H](C(=O)N5CCCC5)C4)nc3[nH]2)c1 [Example 33, (R)-(1-(2-(5-Methylpyridin-3-yl)-3H-imidazo[4,5-b]pyridin-5-yl)piperidin-3-yl)(pyrrolidin-1-yl)methanone]"
7,7.61,"O=C([C@@H]1CCCN(c2ccc3nc(-c4ccc(OC(F)(F)F)cc4)[nH]c3n2)C1)N1CCCC1 [Example 34, (R)-Pyrrolidin-1-yl(1-(2-(4-(trifluoromethoxy)phenyl)-3H-imidazo[4,5-b]pyridin-5-yl)piperidin-3-yl)methanone]"
8,7.67,"O=C([C@@H]1CCCN(c2ccc3nc(-c4cccc(F)c4)[nH]c3n2)C1)N1CCCC1 [Example 35, (R)-(1-(2-(3-Fluorophenyl)-3H-imidazo[4,5-b]pyridin-5-yl)piperidin-3-yl)(pyrrolidin-1-yl)methanone]"
9,7.68,"COc1cccc(-c2nc3ccc(N4CCC[C@@H](C(=O)N5CCCC5)C4)nc3[nH]2)c1 [Example 36, (R)-(1-(2-(3-Methoxyphenyl)-3H-imidazo[4,5-b]pyridin-5-yl)piperidin-3-yl)(pyrrolidin-1-yl)methanone]"
10,7.90,"COc1cccc(-c2nc3ccc(N4CCC[C@@H](C(=O)N5CCCC5)C4)nc3[nH]2)n1 [Example 37, (R)-(1-(2-(6-Methoxypyridin-2-yl)-3H-imidazo[4,5-b]pyridin-5-yl)piperidin-3-yl)(pyrrolidin-1-yl)methanone]"
11,8.11,"O=C([C@@H]1CCCN(c2ccc3nc(-c4cccc(N5CCCC5)n4)[nH]c3n2)C1)N1CCCC1 [Example 38, (R)-Pyrrolidin-1-yl(1-(2-(6-(pyrrolidin-1-yl)pyridin-2-yl)-3H-imidazo[4,5-b]pyridin-5-yl)piperidin-3-yl)methanone]"
12,8.16,"O=C([C@@H]1CCCN(c2ccc3nc(-c4coc(-c5ccccc5)n4)[nH]c3n2)C1)N1CCCC1 [Example 39, (R)-(1-(2-(2-Phenyloxazol-4-yl)-3H-imidazo[4,5-b]pyridin-5-yl)piperidin-3-yl)(pyrrolidin-1-yl)methanone]"
13,8.19,"CCc1csc(-c2nc3ccc(N4CCC[C@@H](C(=O)N5CCCC5)C4)nc3[nH]2)n1 [Example 40, (R)-(1-(2-(4-Ethylthiazol-2-yl)-3H-imidazo[4,5-b]pyridin-5-yl)piperidin-3-yl)(pyrrolidin-1-yl)methanone]"
14,8.34,"O=C([C@@H]1CCCN(c2ccc3nc(-c4cccc(Cl)c4)[nH]c3n2)C1)N1CCCC1 [Example 41, (R)-(1-(2-(3-Chlorophenyl)-3H-imidazo[4,5-b]pyridin-5-yl)piperidin-3-yl)(pyrrolidin-1-yl)methanone]"
15,8.50,"CC(C)(C)c1csc(-c2nc3ccc(N4CCC[C@@H](C(=O)N5CCCC5)C4)nc3[nH]2)n1 [Example 42, (R)-(1-(2-(4-tert-Butylthiazol-2-yl)-3H-imidazo[4,5-b]pyridin-5-yl)piperidin-3-yl)(pyrrolidin-1-yl)methanone]"
16,8.13,"O=C([C@@H]1CCCN(c2ccc3nc(-c4cccc(OC(F)F)c4)[nH]c3n2)C1)N1CCCC1 [Example 43, (R)-(1-(2-(3-(Difluoromethoxy)phenyl)-3H-imidazo[4,5-b]pyridin-5-yl)piperidin-3-yl)(pyrrolidin-1-yl)methanone]"
17,7.44,"Cc1cccc(-c2nc3ccc(N4CCC[C@@H](C(=O)N5CCCC5)C4)nc3[nH]2)n1 [Example 44, (R)-(1-(2-(6-Methylpyridin-2-yl)-3H-imidazo[4,5-b]pyridin-5-yl)piperidin-3-yl)(pyrrolidin-1-yl)methanone]"
18,7.46,"N#Cc1cccc(-c2nc3ccc(N4CCC[C@@H](C(=O)N5CCCC5)C4)nc3[nH]2)c1 [Example 47, (R)-3-(5-(3-(Pyrrolidine-1-carbonyl)piperidin-1-yl)-3H-imidazo[4,5-b]pyridin-2-yl)benzonitrile]"
19,7.97,O=C([C@@H]1CCCN(c2ccc3nc(COc4ccc(Cl)cc4)[nH]c3n2)C1)N1CCCC1 [Example 48]
20,7.16,"O=C([C@@H]1CCCN(c2ccc3nc(C4(c5ccccc5)CC4)[nH]c3n2)C1)N1CCCC1 [Example 51, (R)-(1-(2-(1-Phenylcyclopropyl)-3H-imidazo[4,5-b]pyridin-5-yl)piperidin-3-yl)(pyrrolidin-1-yl)methanone]"
21,5.60,"O=C([C@@H]1CCCN(c2ccc3nc(C4CCC4)[nH]c3n2)C1)N1CCCC1 [Example 53, (R)-(1-(2-Cyclobutyl-3H-imidazo[4,5-b]pyridin-5-yl)piperidin-3-yl)(pyrrolidin-1-yl)methanone]"
22,6.15,"Cc1cccc(=O)n1Cc1nc2ccc(N3CCC[C@@H](C(=O)N4CCCC4)C3)nc2[nH]1 [Example 57, (R)-6-Methyl-1-((5-(3-(pyrrolidine-1-carbonyl)piperidin-1-yl)-3H-imidazo[4,5-b]pyridin-2-yl)methyl)pyridin-2(1H)-one]"
23,6.07,"c1ccc(C2CCCN(c3ccc4nc(-c5ccnc(C6CC6)n5)[nH]c4n3)C2)nc1 (centres unmarked) [Example 59, 2-(2-Cyclopropylpyrimidin-4-yl)-5-(3-(pyridin-2-yl)piperidin-1-yl)-3H-imidazo[4,5-b]pyridine]"
24,6.05,"CN(C)C(=O)[C@@H]1CCCN(c2ccc3nc(-c4cccc(OC(F)F)c4)[nH]c3n2)C1 [Example 60, (R)-1-(2-(3-(Difluoromethoxy)phenyl)-3H-imidazo[4,5-b]pyridin-5-yl)-N,N-dimethylpiperidine-3-carboxamide]"
25,6.62,O=C(C1CCCC1)N1CCCC(c2nc3ccc(N4CCC[C@@H](C(=O)N5CCCC5)C4)nc3[nH]2)C1 (some centres unmarked) [Example 62]
26,7.23,"O=C([C@@H]1CCCN(c2ccc3nc(-c4ccnc(C5CC5)n4)[nH]c3n2)C1)N1CC[C@H](F)C1 [Example 65, ((R)-1-(2-(2-Cyclopropylpyrimidin-4-yl)-3H-imidazo[4,5-b]pyridin-5-yl)piperidin-3-yl)((S)-3-fluoropyrrolidin-1-yl)methanone]"
